Experimental data taken from ChEMBL document CHEMBL5053469, “Heterocyclic GTP Cyclohydrolase 1 Inhibitors For the Treatment of Pain” (2012).

How the values were obtained:
[1] = Inhibition of rat aortic smooth muscle cell GCH1 expressed in Escherichia coli assessed as reduction in 7,8-dihydroneoptrein 3'-triphosphate formation using GTP as substrate incubated for 1 hr by LC/MS assay
[2] = Inhibition of recombinant rat GCH1 assessed as reduction in 7,8-dihydroneoptrein 3'-triphosphate formation using GTP as substrate incubated for 15 mins by HPLC and fluorescence detection assay

| IC50 [1] | IC50 [2] | SMILES |
| --- | --- | --- |
| 89 µM |  | CC1CCCCC1NC(=O)CSc1nc2c(O)nc(N)nc2[nH]1 (stereo not drawn) |
|  | 24 µM | Nc1nc2[nH]c(S)nc2c(=O)[nH]1 |
| 127 µM |  | Nc1nc(O)c2nc(SCC(=O)Nc3ccc(S(=O)(=O)N4CCCCCC4)cc3)[nH]c2n1 |
